Measured values from patent US20130040944A1, “MGLUR4 ALLOSTERIC POTENTIATORS, COMPOSITIONS, AND METHODS OF TREATING NEUROLOGICAL DYSFUNCTION” (VANDERBILT UNIVERSITY, priority 2009, published 2013).

Target: human mGluR4 (Homo sapiens, UniProt Q14833)
Assay: potentiation of human mGluR4 in transfected CHO cells, Ca2+-sensitive dye fluorescence, EC20 agonist
Conditions: for Emax: CHO, read-out: % Glu Max
[1] = hEC50, human mGluR4 potentiation, unit inferred
[2] = EC50 (nM), potentiation of EC20 agonist response, Table I

Chain of human mGluR4 (Q14833 33-912): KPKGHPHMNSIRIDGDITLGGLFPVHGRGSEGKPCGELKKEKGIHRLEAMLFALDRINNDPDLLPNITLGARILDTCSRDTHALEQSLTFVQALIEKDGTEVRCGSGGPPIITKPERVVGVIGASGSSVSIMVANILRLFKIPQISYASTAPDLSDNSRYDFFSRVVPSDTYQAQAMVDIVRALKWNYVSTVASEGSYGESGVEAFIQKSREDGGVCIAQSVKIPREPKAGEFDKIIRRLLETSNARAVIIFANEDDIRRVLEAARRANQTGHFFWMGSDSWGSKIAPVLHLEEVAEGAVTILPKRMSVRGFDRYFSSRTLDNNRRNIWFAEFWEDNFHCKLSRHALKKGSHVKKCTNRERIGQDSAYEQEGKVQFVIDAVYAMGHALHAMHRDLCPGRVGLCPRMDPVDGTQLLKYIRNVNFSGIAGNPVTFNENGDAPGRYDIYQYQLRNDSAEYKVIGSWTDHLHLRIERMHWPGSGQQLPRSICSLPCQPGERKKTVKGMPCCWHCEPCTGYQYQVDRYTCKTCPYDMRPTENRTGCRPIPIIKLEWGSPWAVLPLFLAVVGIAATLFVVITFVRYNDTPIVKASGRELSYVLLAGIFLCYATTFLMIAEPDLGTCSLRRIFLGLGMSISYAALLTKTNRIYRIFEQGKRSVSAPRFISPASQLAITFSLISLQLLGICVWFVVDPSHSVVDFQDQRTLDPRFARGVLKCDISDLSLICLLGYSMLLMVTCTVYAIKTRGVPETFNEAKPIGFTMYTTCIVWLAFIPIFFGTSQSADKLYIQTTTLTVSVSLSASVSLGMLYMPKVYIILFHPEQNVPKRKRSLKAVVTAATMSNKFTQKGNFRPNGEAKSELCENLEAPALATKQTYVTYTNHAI

Structure (SMILES)	EC50 [1] [nM]	Emax [%]	EC50 [2] [nM]
O=C(Nc1ccn(S(=O)(=O)c2cc(F)c(F)cc2Cl)c1)c1ccccn1 [Example 107, N-(1-((2-chloro-4,5-difluorophenyl)sulfonyl)-1H-pyrrol-3-yl)picolinamide]	158		
Cc1ccc(S(=O)(=O)n2ccc(NC(=O)c3ccccn3)c2)cc1F [Example 75, N-(1-((3-fluoro-4-methylphenyl)sulfonyl)-1H-pyrrol-3-yl)picolinamide]	104		
Cc1ccc(CS(=O)(=O)n2ccc(NC(=O)c3ccccn3)c2)cc1 [Example 47, N-(1-((4-methylbenzyl)sulfonyl)-1H-pyrrol-3-yl)picolinamide]	280		
N#Cc1ccccc1S(=O)(=O)n1ccc(NC(=O)c2ccccn2)c1 [Example 79, N-(1-((2-cyanophenyl)sulfonyl)-1H-pyrrol-3-yl)picolinamide]	489		
CC(c1ccc(Cl)cc1)S(=O)(=O)n1ccc(NC(=O)c2ccccn2)c1 (stereo not shown) [Example 109, N-(1-((1-(4-chlorophenyl)ethyl)sulfonyl)-1H-pyrrol-3-yl)picolinamide]	1890		
O=C(Nc1ccn(S(=O)(=O)Cc2ccccc2Cl)c1)c1ncccc1F [Example 65, N-(1-((2-chlorobenzyl)sulfonyl)-1H-pyrrol-3-yl)-3-fluoropicolinamide]	6970		
O=C(Nc1ccn(S(=O)(=O)Cc2ccccc2)c1)c1cc(F)ccn1 [Example 39, N-(1-(benzylsulfonyl)-1H-pyrrol-3-yl)-4-fluoropicolinamide]		35	369
CC(=O)Oc1ccccc1C(=O)Nc1ccn(S(=O)(=O)c2cccc(C)c2)c1 [Example 54, 2-((1-(m-tolylsulfonyl)-1H-pyrrol-3-yl)carbamoyl)phenyl acetate]	1720		
Cc1cc(S(=O)(=O)n2ccc(NC(=O)c3ccccn3)c2)c(F)cc1Cl [Example 113, N-(1-((4-chloro-2-fluoro-5-methylphenyl)sulfonyl)-1H-pyrrol-3-yl)picolinamide]	346		
N#Cc1cccc(CS(=O)(=O)n2ccc(NC(=O)c3ccccn3)c2)c1 [Example 26]		141	5080
COc1ccc(S(=O)(=O)n2ccc(NC(=O)c3ccccn3)c2)cc1OC [Example 101, N-(1-((3,4-dimethoxyphenyl)sulfonyl)-1H-pyrrol-3-yl)picolinamide]	5730		
O=C(Nc1ccn(S(=O)(=O)Cc2c(Cl)cccc2Cl)c1)c1ccccn1 [Example 98, N-(1-((2,6-dichlorobenzyl)sulfonyl)-1H-pyrrol-3-yl)picolinamide]	119		
CC(C)(C)OC(=O)C(c1ccccc1)S(=O)(=O)n1ccc(NC(=O)c2ccccn2)c1 (stereo not shown) [Example 94, tert-butyl 2-phenyl-2-((3-(picolinamido)-1H-pyrrol-1-yl)sulfonyl)acetate]	14500		
O=C(Nc1ccn(S(=O)(=O)c2ccccc2)c1)c1ccccn1 [Example 4, N-(1-(phenylsulfonyl)-1H-pyrrol-3-yl)picolinamide]		59	280
CC(C)(C)c1ccc(S(=O)(=O)n2ccc(NC(=O)c3ccccn3)c2)cc1 [Example 58, N-(1-((4-(tert-butyl)phenyl)sulfonyl)-1H-pyrrol-3-yl)picolinamide]	16800		
O=C(Nc1ccn(S(=O)(=O)Cc2cccc(F)c2)c1)c1ccco1 [Example 91, N-(1-((3-fluorobenzyl)sulfonyl)-1H-pyrrol-3-yl)furan-2-carboxamide]	6760		
O=C(Nc1ccn(S(=O)(=O)c2ccccc2)c1)c1ccccc1 [Example 5, N-(1-(phenylsulfonyl)-1H-pyrrol-3-yl)benzamide]		93	8170
O=C(Nc1ccn(S(=O)(=O)Cc2ccc(Br)cc2)c1)c1ccccn1 [Example 70, N-(1-((4-bromobenzyl)sulfonyl)-1H-pyrrol-3-yl)picolinamide]	144		
O=C(Nc1ccn(S(=O)(=O)Cc2ccc(Cl)cc2)c1)c1ccccn1 [Example 95, N-(1-((4-chlorobenzyl)sulfonyl)-1H-pyrrol-3-yl)picolinamide]	336		
Cc1ccc(S(=O)(=O)n2ccc(NC(=O)c3ccccn3)c2)cc1C [Example 82, N-(1-((3,4-dimethylphenyl)sulfonyl)-1H-pyrrol-3-yl)picolinamide]	139		
O=C(Nc1ccn(S(=O)(=O)Cc2ccc(Cl)c(Cl)c2)c1)c1ccccn1 [Example 34]		159	
Cc1cc(F)ccc1S(=O)(=O)n1ccc(NC(=O)c2ccccn2)c1 [Example 87, N-(1-((4-fluoro-2-methylphenyl)sulfonyl)-1H-pyrrol-3-yl)picolinamide]	111		
O=C(Nc1ccn(S(=O)(=O)c2ccc(F)c(F)c2)c1)c1ccccn1 [Example 59, N-(1-((3,4-difluorophenyl)sulfonyl)-1H-pyrrol-3-yl)picolinamide]	379		

Results, then the compound that gave them:

EC50 [1] [nM]	Emax [%]	EC50 [2] [nM]	Structure (SMILES)
80			O=C(Nc1ccn(S(=O)(=O)c2cccs2)c1)c1ccccn1 [Example 134, N-(1-(thiophen-2-ylsulfonyl)-1H-pyrrol-3-yl)picolinamide]
4790			Cn1cc(S(=O)(=O)n2ccc(NC(=O)c3ccccn3)c2)cn1 [Example 143, N-(1-((1-methyl-1H-pyrazol-4-yl)sulfonyl)-1H-pyrrol-3-yl)picolinamide]
133			CCc1ccc(S(=O)(=O)n2ccc(NC(=O)c3ccccn3)c2)cc1 [Example 122, N-(1-((4-ethylphenyl)sulfonyl)-1H-pyrrol-3-yl)picolinamide]
550			O=C(Nc1ccn(S(=O)(=O)c2ccc3[nH]c(=O)sc3c2)c1)c1ccccn1 [Example 158, N-(1-((2-oxo-2,3-dihydrobenzo[d]thiazol-6-yl)sulfonyl)-1H-pyrrol-3-yl)picolinamide]
543			O=C(Nc1ccn(S(=O)(=O)c2ccc(N3CCCC3=O)cc2)c1)c1ccccn1 [Example 154, N-(1-((4-(2-oxopyrrolidin-1-yl)phenyl)sulfonyl)-1H-pyrrol-3-yl)picolinamide]
3790			O=C(Nc1ccn(S(=O)(=O)c2cccnc2Cl)c1)c1ccccn1 [Example 137, N-(1-((2-chloropyridin-3-yl)sulfonyl)-1H-pyrrol-3-yl)picolinamide]
413			O=C(Nc1ccn(S(=O)(=O)c2ccsc2)c1)c1ccccn1 [Example 132, N-(1-(thiophen-3-ylsulfonyl)-1H-pyrrol-3-yl)picolinamide]
220			N#Cc1ccc(S(=O)(=O)n2ccc(NC(=O)c3ccccn3)c2)cc1 [Example 130, N-(1-((4-cyanophenyl)sulfonyl)-1H-pyrrol-3-yl)picolinamide]
243			O=C(Nc1ccn(S(=O)(=O)c2ccc(Cl)cc2F)c1)c1ccccn1 [Example 138, N-(1-((4-chloro-2-fluorophenyl)sulfonyl)-1H-pyrrol-3-yl)picolinamide]
84			O=C(Nc1ccn(S(=O)(=O)c2cccc(Cl)c2F)c1)c1ccccn1 [Example 124, N-(1-((3-chloro-2-fluorophenyl)sulfonyl)-1H-pyrrol-3-yl)picolinamide]
351			CC1(C)CCc2cc(S(=O)(=O)n3ccc(NC(=O)c4ccccn4)c3)ccc2O1 [Example 149, N-(1-((2,2-dimethylchroman-6-yl)sulfonyl)-1H-pyrrol-3-yl)picolinamide]
217			O=C(Nc1ccn(S(=O)(=O)c2ccc(Cl)nc2)c1)c1ccccn1 [Example 118, N-(1-((6-chloropyridin-3-yl)sulfonyl)-1H-pyrrol-3-yl)picolinamide]
286			Cc1c(Cl)cccc1S(=O)(=O)n1ccc(NC(=O)c2ccccn2)c1 [Example 116, N-(1-((3-chloro-2-methylphenyl)sulfonyl)-1H-pyrrol-3-yl)picolinamide]
